1 molecule from ChEMBL document CHEMBL1649474, “Pharmacodynamics of levofloxacin in a murine pneumonia model of Pseudomonas aeruginosa infection: determination of epithelial lining fluid targets” (Antimicrob Agents Chemother, 2009) can be followed below.

Series [1] in a line: AUC in epithelial lining fluid of Swiss-Webster mouse infected with Pseudomonas aeruginosa at 200 mg/kg, ip administered as single dose. Also noted: dose 200 mg/kg, route intraperitoneal. Type of series: ADME, organism-based.
The next series deals with Pseudomonas aeruginosa. The experiment in a line: Antimicrobial activity against Pseudomonas aeruginosa infected in Swiss-Webster mouse at 200 mg/kg, ip administered as single dose. Type of series: functional, organism-based. Details: dose 200 mg/kg, route intraperitoneal.
The nature of series [2]: AUC in plasma of Swiss-Webster mouse infected with Pseudomonas aeruginosa at 200 mg/kg, ip administered as single dose. Type of series: ADME, organism-based. Also noted: dose 200 mg/kg, route intraperitoneal.
A short description of series [3]: Apparent clearance in epithelial lining fluid of Swiss-Webster mouse infected with Pseudomonas aeruginosa at 200 mg/kg, ip administered as single dose.
The nature of series [4]: Volume of distribution in epithelial lining fluid of Swiss-Webster mouse infected with Pseudomonas aeruginosa at 200 mg/kg, ip administered as single dose. Details: dose 200 mg/kg, route intraperitoneal. Conditions: in vivo. The format is ADME, organism-based.
A short description of series [5]: Apparent volume of distribution with respect to bioavailability in epithelial lining fluid of Swiss-Webster mouse infected with Pseudomonas aeruginosa at 200 mg/kg, ip administered as single dose. Conditions: read-out: Vc/F. The format is ADME, organism-based.
Series [6] in a line: Absorption rate constant in epithelial lining fluid of Swiss-Webster mouse infected with Pseudomonas aeruginosa at 200 mg/kg, ip administered as single dose. Conditions: in vivo. Details: dose 200 mg/kg, route intraperitoneal. Type of series: ADME, organism-based.
A short description of series [7]: Drug uptake in epithelial lining fluid of Swiss-Webster mouse infected with Pseudomonas aeruginosa at 200 mg/kg, ip administered as single dose. Also noted: dose 200 mg/kg, route intraperitoneal. The following applies: in vivo. Type of series: ADME, organism-based.

Turning to `C[C@H]1COc2c(N3CCN(C)CC3)c(F)cc3c(=O)c(C(=O)O)cn1c23.C[C@H]1COc2c(N3CCN(C)CC3)c(F)cc3c(=O)c(C(=O)O)cn1c23.O` [LEVOFLOXACIN], the AUC was determined as 49800 ng·h/mL in series [1] and 64000 ng·h/mL in series [2]. The same molecule yielded a half-maximal effective concentration (EC50) with Pseudomonas aeruginosa of 3.15 µg/mL. Further, the apparent clearance (CL/F) in series [3] was 1.3 mL/min. The same molecule displayed a Vd in series [4] of 0.024 L. For the same molecule, in series [5], the Vd/F came out at 0.044 L. This molecule also showed a Ka in series [6] of 7.81 h⁻¹. In series [7], this molecule returned a Drug uptake of 77.7%.

A word on the AUC: it is the area under the concentration-time curve, a measure of exposure. One may read the EC50 as the concentration at which the effect is half-maximal. Low values mean a more potent agent, high ones a less potent agent. What is called CL/F is clearance divided by bioavailability, as obtained after extravascular dosing.
